The text below walks through data of PubChem BioAssay (NCI).

Molecules are shown by their SMILES. Several values for one entry are separate records, joined by “and”; a condition that tells them apart may be missing. Identical values can stand only once.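 Test compounds were applied to cells in 96-well plates for 48 hours at 5 doses. GI50 marks 50% less growth. TGI: concentration producing complete growth inhibition.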

Holding throughout (assay): NCI tumour cell line growth inhibition, 48 h
Experiment [1] relates to HL-60(TB) leukemia.
Experiment [2] concerns K-562 leukemia.
The subject of experiment [3] is LOX IMVI melanoma.
Experiment [4] concerns MALME-3M melanoma.
For experiment [5], the system named is PC-3 prostate.
Experiment [6] deals with RXF 393 renal.
In experiment [7] the test system is SF-295 CNS.
Experiment [8] has as its system SK-MEL-28 melanoma.
The test system of experiment [9] is SK-OV-3 ovarian.
The test system of experiment [10] is SN12C renal.

As to `O=C1c2ccccc2-c2cn(Cc3ccccc3)c3cccc(c23)C1c1cccnc1` (stereo unspecified), the GI50 in experiment [1] is 2400 nM; in experiment [2], 2090 nM; in experiment [3] it was 2760 nM; in experiment [4] it was 10.2 µM; in experiment [5], 5.94 µM; in experiment [6], 8100 nM. Further, the GI50 in experiment [7] is 2020 nM; in experiment [8], 4.12 µM; in [9] it was 5.38 µM; in [10] it was 3.08 µM. Besides, the TGI in [1] is 19.5 µM; in experiment [2] it was greater than 50 µM; in experiment [3] it was greater than 50 µM; in [4], greater than 50 µM; in [5], greater than 50 µM; in experiment [6] it was greater than 50 µM. Further, the TGI in experiment [7], in experiment [8], in experiment [9] and in experiment [10] was greater than 50 µM in each case.

On to `COc1cc(/C=N\Nc2ccccc2)ccc1OC(=O)c1ccccc1`, for which the GI50 in [1] is 544 nM; in experiment [2] it was 369 nM; in experiment [3], 296 nM; in experiment [4], 7.55 µM; in experiment [5], 0.921 µM; in experiment [6], 23200 nM. Besides, the GI50 is 1920 nM in experiment [7], 19.2 µM in [8], 45.6 µM in [9] and 11 µM in experiment [10]. The TGI in experiment [1] was greater than 72.1 µM; in experiment [2], 11.8 µM; in experiment [3] it was 4.57 µM; in experiment [4], greater than 100 µM; in experiment [5] it was 22.7 µM; in experiment [6] it was 74.6 µM. In addition, the TGI was 10.7 µM in experiment [7], greater than 93.1 µM in [8], greater than 100 µM in [9] and greater than 100 µM in experiment [10].

With `COc1cc2c(cc1O)CCN[C@@]21CS[C@H]2c3c(OC(C)=O)c(C)c4c(c3C(COC1=O)N1C2C2NC(Cc3cc(C)c(OC)c(O)c32)[C@@H]1O)OCO4` (stereo partly specified), the TGI in experiment [1] was > 100 µM and 8.2e-07 µg/mL; in [2], 11.3 µM and 0.0045 µg/mL; in experiment [3] it was 1.97 µg/mL; in experiment [4], 0.000506 ng/mL; in experiment [5], less than 0.01 µM; in experiment [6] it was < 10 nM and 1.9e-07 µg/mL and 0.0045 µg/mL. In addition, the TGI was 1.09 µM and 5.17 µg/mL in experiment [7]; < 10 nM and 3.1e-07 µg/mL and 0.0045 µg/mL in experiment [8]; 10.9 µM and 1.47 µg/mL in experiment [9]; 4.8 ng/mL in [10]. Further, the GI50 was 4.5 ng/mL in experiment [2]; 4.5 ng/mL in experiment [3]; 0.000122 ng/mL in experiment [4]; 4.5 ng/mL in experiment [6]; 4.5 ng/mL in experiment [7]; 4.5 ng/mL in experiment [9]. For the same compound, the GI50 in [10] is 4.5 ng/mL.

`COc1ccc([C@@H]2[C@@H](Cl)C(=O)N2c2cc(OC)c(OC)c(OC)c2)cc1C`: the GI50 in [1] is 27.2 nM; in experiment [2], 45.6 nM; in experiment [3], 69.2 nM; in experiment [4], 17.8 µM; in experiment [5], 0.0633 µM; in experiment [6] it was 31.3 nM. For the same compound, the GI50 in experiment [7] is 50.1 nM; in [8], 11 µM; in experiment [9] it was 0.0841 µM; in [10], 0.0999 µM. The TGI in experiment [1] is 0.0767 µM; in experiment [2], greater than 100 µM; in [3], 17 µM; in experiment [4] it was 64.8 µM; in experiment [5], greater than 100 µM; in [6], 20.6 µM. Also, the TGI in experiment [7] was 39.7 µM; in [8] it was greater than 100 µM; in experiment [9], greater than 100 µM; in [10] it was 21.9 µM.

As to `O=C(Nc1c[nH]c(=O)[nH]c1=O)Oc1ccccc1`, the TGI in [1] was 33.5 µM; in experiment [2], greater than 100 µM; in experiment [3], greater than 100 µM; in experiment [4], greater than 100 µM; in experiment [5], greater than 100 µM; in experiment [6] it was greater than 100 µM. For the same compound, the TGI in experiment [7], in experiment [8], in [9] and in experiment [10] was greater than 100 µM in each case.

As to `Oc1ccccc1/C=N\NC(=S)Nc1ccc(F)cc1`, the GI50 is 906 nM in experiment [1]; 582 nM in experiment [2]; 708 nM in experiment [3]; 1.2 µM in [4]; 7.81 µM in experiment [5]; 2630 nM in [6]. Also, the GI50 was 1380 nM in experiment [7], 2 µM in [8], 2.11 µM in experiment [9] and 2.37 µM in experiment [10]. Moreover, the TGI is 6.22 µM in experiment [1]; greater than 100 µM in experiment [2]; greater than 79.7 µM in experiment [3]; 8.35 µM in [4]; greater than 100 µM in experiment [5]; 65.8 µM in experiment [6]. Moreover, the TGI in [8] was greater than 100 µM; in experiment [9], 76.5 µM; in experiment [10], greater than 93.7 µM.

On to `COc1oc(C2C/C(=C/C(C)=C/C(C)=C/C(C)=C/c3ccc([N+](=O)[O-])cc3)CO2)c(C)c(=O)c1C` (stereo unspecified), for which the TGI in experiment [1] is 8.13 µM; in experiment [2] it was 21.3 µM; in experiment [3], 23.4 µM; in experiment [4], 16.2 µM; in experiment [5], 18.4 µM; in [6] it was 95.1 µM. The TGI in [7] was 34.7 µM; in experiment [8], greater than 60.5 µM; in [9] it was greater than 63.5 µM; in experiment [10] it was 27 µM.

Take `COc1cccc(/C=C\C(=O)c2ccccc2)c1`: the GI50 in [1] is 5980 nM; in experiment [2], 6270 nM; in experiment [3] it was 2420 nM; in [4] it was 14.3 µM; in experiment [5] it was 3.73 µM; in [6] it was 2460 nM. Further, the GI50 is 8450 nM in [7], 4.31 µM in experiment [8], 15.9 µM in [9] and 8.97 µM in experiment [10]. For the same compound, the TGI in experiment [1] was greater than 100 µM; in experiment [2], greater than 100 µM; in [3], 7.38 µM; in [4], 31.4 µM; in [5], 26.2 µM; in experiment [6], 5.34 µM. Further, the TGI in [7] stood at 27.5 µM; in experiment [8], 15 µM; in [9] it was 32.2 µM; in experiment [10] it was 25.5 µM.
